How the values were obtained:
Assay type in all cases: in vivo
Avena fatua = assay: Test Example 4: herbicidal effect by application to foliage (diluvial soil, plastic box); conditions: Application herbicide amount 320 g/ha; foliage application
In short: (§1)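 Seeds sown in sterilized diluvial soil, covered ~1.5 cm, grown 14 days in greenhouse at 25° C. to 30° C. Emulsion formulation diluted in water to set rate (g/ha) and sprayed onto stems and leaves. Effect scored visually 3 weeks later on 0–5 scale (5 = ≥90% herbicidal ratio, 0 = ≤5%).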

Apera spica-venti. = assay: as above; conditions: Application herbicide amount 320 g/ha; foliage application
In short: as §1

Stellaria media = assay: as above; conditions: Application herbicide amount 320 g/ha; foliage application
In short: as §1

Amaranthus retroflexus = assay: as above; conditions: Application herbicide amount 320 g/ha; foliage application
In short: as §1

Digitaria ciliaris = assay: as above; conditions: Application herbicide amount 320 g/ha; foliage application
In short: as §1

Abutilon theophrasti = assay: as above; conditions: Application herbicide amount 320 g/ha; foliage application
In short: as §1

Setaria viridis = assay: as above; conditions: Application herbicide amount 320 g/ha; foliage application
In short: as §1

Lolium multiflorum Lam. = assay: as above; conditions: Application herbicide amount 320 g/ha; foliage application
In short: as §1

Veronica persica = assay: as above; conditions: Application herbicide amount 320 g/ha; foliage application
In short: as §1

Alopecurus myosuroides = assay: as above; conditions: Application herbicide amount 320 g/ha; foliage application
In short: as §1

[1] = test system: Echinochloa crus-galli var. crus-galli; assay: as above; conditions: Application herbicide amount 320 g/ha; foliage application
In short: as §1

Galium spurium = assay: as above; conditions: Application herbicide amount 320 g/ha; foliage application
In short: as §1

Chenopodium album = assay: as above; conditions: Application herbicide amount 320 g/ha; foliage application
In short: as §1

[2] = test system: Echinochloa oryzacola Vasing.; assay: Test Example 1: herbicidal activity, application before weed generation in submerged conditions; conditions: Application herbicide amount 320 g/ha; Seventeenth Table
In short: (§2)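 Pre-emergence water-surface application under 4 cm flooding, same day as sowing, with rice transplanted at 2.5 leaf stage. Dose given as g/ha. Plants grown at 25° C. to 30° C. and rated three weeks later on a 0 (≤5%) to 5 (≥90%) herbicidal-ratio scale.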

Monochoria vaginalis = assay: as above; conditions: Application herbicide amount 320 g/ha; Seventeenth Table
In short: as §2

Scirpus juncoides = assay: as above; conditions: Application herbicide amount 320 g/ha; Seventeenth Table
In short: as §2

Brassica campestris L. = assay: Test Example 4: effect on crop by application to foliage (diluvial soil, plastic box); conditions: Application herbicide amount 320 g/ha; foliage application
In short: as §1

[3] = test system: Beta vulgaris ssp. vulgaris; assay: as above; conditions: Application herbicide amount 320 g/ha; foliage application
In short: as §1

Triticum aestivum = assay: as above; conditions: Application herbicide amount 320 g/ha; foliage application
In short: as §1

Glycine max = assay: as above; conditions: Application herbicide amount 320 g/ha; foliage application
In short: as §1

Zea mays = assay: as above; conditions: Application herbicide amount 320 g/ha; foliage application
In short: as §1

[4] = test system: transplanted Oryza sativa; assay: Test Example 1: effect on crop, application before weed generation in submerged conditions; conditions: Application herbicide amount 320 g/ha; Seventeenth Table
In short: as §2

SMILES | I (Avena fatua) herbicidal effect grade (Avena fatua) | L (Apera spica-venti.) herbicidal effect grade (Apera spica-venti.) | P (Stellaria media) herbicidal effect grade (Stellaria media) | N (Amaranthus retroflexus) herbicidal effect grade (Amaranthus retroflexus) | F (Digitaria ciliaris) herbicidal effect grade (Digitaria ciliaris) | M (Abutilon theophrasti) herbicidal effect grade (Abutilon theophrasti) | G (Setaria viridis) herbicidal effect grade (Setaria viridis) | K (Lolium multiflorum Lam.) herbicidal effect grade (Lolium multiflorum Lam.) | R (Veronica persica) herbicidal effect grade (Veronica persica) | J (Alopecurus myosuroides) herbicidal effect grade (Alopecurus myosuroides) | H (Echinochloa crus-galli var. crus-galli) herbicidal effect grade [1] | Q (Galium spurium) herbicidal effect grade (Galium spurium) | O (Chenopodium album) herbicidal effect grade (Chenopodium album) | A: Echinochloa oryzicola Vasing. (herbicidal effect grade) [2] | C: Monochoria vaginalis (herbicidal effect grade) (Monochoria vaginalis) | B: Scirpus juncoides (herbicidal effect grade) (Scirpus juncoides) | g (Brassica campestris L.) effect on crop grade (Brassica campestris L.) | f (Beta vulgaris ssp. vulgaris) effect on crop grade [3] | e (Triticum aestivum) effect on crop grade (Triticum aestivum) | d (Glycine max) effect on crop grade (Glycine max) | also measured
CSCCNc1nnc2c(C(=O)Nc3nnc(C)o3)ccc(C(F)(F)F)n12 [1-130] | 1 (Herbicidal ratio of 5% or more and less than 20%) | 1 (Herbicidal ratio of 5% or more and less than 20%) | 3 (Herbicidal ratio of 40% or more and less than 70%) | 3 (Herbicidal ratio of 40% or more and less than 70%) | 4 (Herbicidal ratio of 70% or more and less than 90%) | 3 (Herbicidal ratio of 40% or more and less than 70%) | 4 (Herbicidal ratio of 70% or more and less than 90%) | 1 (Herbicidal ratio of 5% or more and less than 20%) | 3 (Herbicidal ratio of 40% or more and less than 70%) | 1 (Herbicidal ratio of 5% or more and less than 20%) | 5 (Herbicidal ratio of 90% or more (almost completely withered)) | 4 (Herbicidal ratio of 70% or more and less than 90%) | 5 (Herbicidal ratio of 90% or more (almost completely withered)) | 1 (Herbicidal ratio of 5% or more and less than 20%) | 0 (Herbicidal ratio of 5% or less (almost no effect)) | 0 (Herbicidal ratio of 5% or less (almost no effect)) | 4 (Herbicidal ratio of 70% or more and less than 90%) | 5 (Herbicidal ratio of 90% or more (almost completely withered)) | 0 (Herbicidal ratio of 5% or less (almost no effect)) | 3 (Herbicidal ratio of 40% or more and less than 70%) | c (Zea mays) effect on crop grade (Zea mays): 0 (Herbicidal ratio of 5% or less (almost no effect)); a: transplanted Oryza sativa (effect on crop grade) [4]: 1 (Herbicidal ratio of 5% or more and less than 20%)
Cc1nnc(NC(=O)c2ccc(C(F)(F)F)n3c(NCC(F)(F)F)nnc23)o1 [1-131] | 0 (Herbicidal ratio of 5% or less (almost no effect)) | 0 (Herbicidal ratio of 5% or less (almost no effect)) | 3 (Herbicidal ratio of 40% or more and less than 70%) | 3 (Herbicidal ratio of 40% or more and less than 70%) | 4 (Herbicidal ratio of 70% or more and less than 90%) | 3 (Herbicidal ratio of 40% or more and less than 70%) | 3 (Herbicidal ratio of 40% or more and less than 70%) | 0 (Herbicidal ratio of 5% or less (almost no effect)) | 3 (Herbicidal ratio of 40% or more and less than 70%) | 0 (Herbicidal ratio of 5% or less (almost no effect)) | 4 (Herbicidal ratio of 70% or more and less than 90%) | 0 (Herbicidal ratio of 5% or less (almost no effect)) | 5 (Herbicidal ratio of 90% or more (almost completely withered)) | 2 (Herbicidal ratio of 20% or more and less than 40%) | 0 (Herbicidal ratio of 5% or less (almost no effect)) | 1 (Herbicidal ratio of 5% or more and less than 20%) | 0 (Herbicidal ratio of 5% or less (almost no effect)) | 3 (Herbicidal ratio of 40% or more and less than 70%) | 0 (Herbicidal ratio of 5% or less (almost no effect)) | 3 (Herbicidal ratio of 40% or more and less than 70%) | c (Zea mays) effect on crop grade (Zea mays): 0 (Herbicidal ratio of 5% or less (almost no effect)); a: transplanted Oryza sativa (effect on crop grade) [4]: 0 (Herbicidal ratio of 5% or less (almost no effect))
Cc1nnc(NC(=O)c2ccc(C(F)(F)F)n3c(N(C)C4CCCCC4)nnc23)o1 [1-133] | 0 (Herbicidal ratio of 5% or less (almost no effect)) | 0 (Herbicidal ratio of 5% or less (almost no effect)) | 4 (Herbicidal ratio of 70% or more and less than 90%) | 3 (Herbicidal ratio of 40% or more and less than 70%) | 3 (Herbicidal ratio of 40% or more and less than 70%) | 3 (Herbicidal ratio of 40% or more and less than 70%) | 0 (Herbicidal ratio of 5% or less (almost no effect)) | 0 (Herbicidal ratio of 5% or less (almost no effect)) | 2 (Herbicidal ratio of 20% or more and less than 40%) | 0 (Herbicidal ratio of 5% or less (almost no effect)) | 4 (Herbicidal ratio of 70% or more and less than 90%) | 1 (Herbicidal ratio of 5% or more and less than 20%) | 4 (Herbicidal ratio of 70% or more and less than 90%) | 5 (Herbicidal ratio of 90% or more (almost completely withered)) | 4 (Herbicidal ratio of 70% or more and less than 90%) | 3 (Herbicidal ratio of 40% or more and less than 70%) | 0 (Herbicidal ratio of 5% or less (almost no effect)) | 3 (Herbicidal ratio of 40% or more and less than 70%) | 0 (Herbicidal ratio of 5% or less (almost no effect)) | 3 (Herbicidal ratio of 40% or more and less than 70%) | c (Zea mays) effect on crop grade (Zea mays): 0 (Herbicidal ratio of 5% or less (almost no effect)); a: transplanted Oryza sativa (effect on crop grade) [4]: 0 (Herbicidal ratio of 5% or less (almost no effect))
CCN(C)c1nnc2c(C(=O)Nc3nnc(C)o3)ccc(C(F)(F)F)n12 [1-134] | 0 (Herbicidal ratio of 5% or less (almost no effect)) | 1 (Herbicidal ratio of 5% or more and less than 20%) | 4 (Herbicidal ratio of 70% or more and less than 90%) | 3 (Herbicidal ratio of 40% or more and less than 70%) | 4 (Herbicidal ratio of 70% or more and less than 90%) | 4 (Herbicidal ratio of 70% or more and less than 90%) | 3 (Herbicidal ratio of 40% or more and less than 70%) | 1 (Herbicidal ratio of 5% or more and less than 20%) | 4 (Herbicidal ratio of 70% or more and less than 90%) | 1 (Herbicidal ratio of 5% or more and less than 20%) | 5 (Herbicidal ratio of 90% or more (almost completely withered)) | 3 (Herbicidal ratio of 40% or more and less than 70%) | 5 (Herbicidal ratio of 90% or more (almost completely withered)) | 3 (Herbicidal ratio of 40% or more and less than 70%) | 2 (Herbicidal ratio of 20% or more and less than 40%) | 3 (Herbicidal ratio of 40% or more and less than 70%) | 4 (Herbicidal ratio of 70% or more and less than 90%) | 5 (Herbicidal ratio of 90% or more (almost completely withered)) | 1 (Herbicidal ratio of 5% or more and less than 20%) | 3 (Herbicidal ratio of 40% or more and less than 70%) | c (Zea mays) effect on crop grade (Zea mays): 0 (Herbicidal ratio of 5% or less (almost no effect)); a: transplanted Oryza sativa (effect on crop grade) [4]: 0 (Herbicidal ratio of 5% or less (almost no effect))

Source: US9708314B2, “Heterocyclic amide compound” (NISSAN CHEMICAL INDUSTRIES, LTD., priority 2013, dated 2017)
